Type in all cases: biochemical
The target in one assay is T1, Itk (Homo sapiens, UniProt Q08881).
T1 construct: Kinases are expressed as either kinase domains or full length constructs; made in house
T1 sequence (Q08881 1-620): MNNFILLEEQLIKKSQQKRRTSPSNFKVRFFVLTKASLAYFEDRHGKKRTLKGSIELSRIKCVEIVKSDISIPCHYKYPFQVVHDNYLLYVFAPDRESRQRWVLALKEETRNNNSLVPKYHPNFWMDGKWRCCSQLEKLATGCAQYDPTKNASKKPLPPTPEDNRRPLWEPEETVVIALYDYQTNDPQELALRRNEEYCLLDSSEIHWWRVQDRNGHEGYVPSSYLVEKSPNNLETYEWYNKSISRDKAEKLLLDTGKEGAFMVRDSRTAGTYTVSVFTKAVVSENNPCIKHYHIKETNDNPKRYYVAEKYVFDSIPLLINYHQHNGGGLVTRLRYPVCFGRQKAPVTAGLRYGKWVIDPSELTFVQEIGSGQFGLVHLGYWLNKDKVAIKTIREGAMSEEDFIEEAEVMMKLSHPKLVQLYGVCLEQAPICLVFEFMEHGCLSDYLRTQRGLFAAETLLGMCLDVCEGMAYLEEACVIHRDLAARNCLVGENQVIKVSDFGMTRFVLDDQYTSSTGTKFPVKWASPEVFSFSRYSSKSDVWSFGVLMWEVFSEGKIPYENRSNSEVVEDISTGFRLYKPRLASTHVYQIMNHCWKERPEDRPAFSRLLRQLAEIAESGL
The experiment in a line: Kinase inhibition assay (33P transfer), Itk. The conditions noted are these: Table 3; read-out: Itk-1. A digest of the protocol: (§1)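 Kinase domains or full-length enzymes, GST- or polyHis-tagged, were expressed in E. coli or baculovirus High Five cells and affinity-purified. Transfer of 33PO4 from ATP onto plate-bound poly(Glu,Tyr) 4:1 or poly(Arg,Ser) 3:1 was counted by liquid scintillation after a 0.5% phosphoric acid wash. IC50 = concentration halving incorporation.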

The next assay deals with T2, Lck (Homo sapiens, UniProt P06239).
T2 construct: Kinases are expressed as either kinase domains or full length constructs; made in house
The experiment in a line: Kinase inhibition assay (33P transfer), Lck. To be noted: Table 3; read-out: Lck-1. A digest of the protocol: (§2)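 Kinase domains or full-length kinases, GST- or His-tagged and expressed in E. coli or baculovirus/High Five cells, transferred 33PO4 from ATP onto plate-bound poly(Glu,Tyr) 4:1 or poly(Arg,Ser) 3:1. After incubation, plates were washed with 0.5% phosphoric acid and counted by liquid scintillation.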

A further assay addresses T3, IGFR-1 (Homo sapiens, UniProt P08069).
T3 construct: Kinases are expressed as either kinase domains or full length constructs; made in house
The assay can be described thus: Kinase inhibition assay (33P transfer), IGFR-1. The conditions noted are these: Table 2, kinase inhibition class.

A further assay has as its target T4, Tek (Homo sapiens, UniProt Q02763).
T4 construct: Kinases are expressed as either kinase domains or full length constructs; made in house
The assay can be described thus: Kinase inhibition assay (33P transfer), Tek. To be noted: read-out: Tek-1. A digest of the protocol:
as §1

In the next assay the target is T5, c-Met (Homo sapiens, UniProt P08581).
T5 construct: Kinases are expressed as either kinase domains or full length constructs; made in house
T5 sequence (P08581 25-1390): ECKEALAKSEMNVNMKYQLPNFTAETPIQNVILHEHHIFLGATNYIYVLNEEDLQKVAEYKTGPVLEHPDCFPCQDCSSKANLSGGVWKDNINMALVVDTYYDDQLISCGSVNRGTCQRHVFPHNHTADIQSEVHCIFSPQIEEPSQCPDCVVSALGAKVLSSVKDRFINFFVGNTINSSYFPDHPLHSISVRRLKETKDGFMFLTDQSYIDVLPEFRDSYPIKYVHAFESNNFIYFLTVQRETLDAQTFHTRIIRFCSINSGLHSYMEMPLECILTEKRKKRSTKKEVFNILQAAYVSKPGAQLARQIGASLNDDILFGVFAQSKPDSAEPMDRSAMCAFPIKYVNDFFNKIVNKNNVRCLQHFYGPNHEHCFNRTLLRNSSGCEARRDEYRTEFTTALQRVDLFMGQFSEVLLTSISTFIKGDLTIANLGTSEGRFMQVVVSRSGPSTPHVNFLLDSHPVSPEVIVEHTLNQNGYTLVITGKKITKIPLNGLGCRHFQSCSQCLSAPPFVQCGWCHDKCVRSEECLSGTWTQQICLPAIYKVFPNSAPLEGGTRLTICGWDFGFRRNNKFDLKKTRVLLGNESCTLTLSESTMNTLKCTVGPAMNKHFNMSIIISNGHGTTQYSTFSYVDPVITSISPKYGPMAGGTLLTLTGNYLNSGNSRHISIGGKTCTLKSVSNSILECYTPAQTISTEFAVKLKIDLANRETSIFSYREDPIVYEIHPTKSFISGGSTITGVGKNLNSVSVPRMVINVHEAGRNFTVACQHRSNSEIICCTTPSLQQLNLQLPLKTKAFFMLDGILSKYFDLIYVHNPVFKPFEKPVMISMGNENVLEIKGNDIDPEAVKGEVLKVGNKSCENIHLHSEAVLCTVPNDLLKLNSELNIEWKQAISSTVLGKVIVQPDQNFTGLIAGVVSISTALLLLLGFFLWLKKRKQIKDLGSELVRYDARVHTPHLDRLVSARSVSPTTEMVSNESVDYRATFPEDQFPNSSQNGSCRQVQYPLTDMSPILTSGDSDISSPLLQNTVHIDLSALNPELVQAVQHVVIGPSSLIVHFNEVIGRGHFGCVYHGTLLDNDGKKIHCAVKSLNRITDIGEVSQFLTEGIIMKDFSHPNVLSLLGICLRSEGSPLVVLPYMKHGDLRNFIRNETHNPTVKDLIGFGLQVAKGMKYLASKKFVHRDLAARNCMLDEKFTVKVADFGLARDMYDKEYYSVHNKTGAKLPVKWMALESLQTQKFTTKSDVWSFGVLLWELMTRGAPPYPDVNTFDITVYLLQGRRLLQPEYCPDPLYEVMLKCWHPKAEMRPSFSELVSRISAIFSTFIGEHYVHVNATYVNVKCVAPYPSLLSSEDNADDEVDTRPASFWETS
The experiment in a line: Kinase inhibition assay (33P transfer), c-Met. The conditions noted are these: Table 2, kinase inhibition class; read-out: Met-1. In outline:
as §1

The target of another assay is T6, EGFR (Homo sapiens, UniProt P00533).
T6 construct: Kinases are expressed as either kinase domains or full length constructs; made in house
T6 sequence (P00533 25-1210, species assumed): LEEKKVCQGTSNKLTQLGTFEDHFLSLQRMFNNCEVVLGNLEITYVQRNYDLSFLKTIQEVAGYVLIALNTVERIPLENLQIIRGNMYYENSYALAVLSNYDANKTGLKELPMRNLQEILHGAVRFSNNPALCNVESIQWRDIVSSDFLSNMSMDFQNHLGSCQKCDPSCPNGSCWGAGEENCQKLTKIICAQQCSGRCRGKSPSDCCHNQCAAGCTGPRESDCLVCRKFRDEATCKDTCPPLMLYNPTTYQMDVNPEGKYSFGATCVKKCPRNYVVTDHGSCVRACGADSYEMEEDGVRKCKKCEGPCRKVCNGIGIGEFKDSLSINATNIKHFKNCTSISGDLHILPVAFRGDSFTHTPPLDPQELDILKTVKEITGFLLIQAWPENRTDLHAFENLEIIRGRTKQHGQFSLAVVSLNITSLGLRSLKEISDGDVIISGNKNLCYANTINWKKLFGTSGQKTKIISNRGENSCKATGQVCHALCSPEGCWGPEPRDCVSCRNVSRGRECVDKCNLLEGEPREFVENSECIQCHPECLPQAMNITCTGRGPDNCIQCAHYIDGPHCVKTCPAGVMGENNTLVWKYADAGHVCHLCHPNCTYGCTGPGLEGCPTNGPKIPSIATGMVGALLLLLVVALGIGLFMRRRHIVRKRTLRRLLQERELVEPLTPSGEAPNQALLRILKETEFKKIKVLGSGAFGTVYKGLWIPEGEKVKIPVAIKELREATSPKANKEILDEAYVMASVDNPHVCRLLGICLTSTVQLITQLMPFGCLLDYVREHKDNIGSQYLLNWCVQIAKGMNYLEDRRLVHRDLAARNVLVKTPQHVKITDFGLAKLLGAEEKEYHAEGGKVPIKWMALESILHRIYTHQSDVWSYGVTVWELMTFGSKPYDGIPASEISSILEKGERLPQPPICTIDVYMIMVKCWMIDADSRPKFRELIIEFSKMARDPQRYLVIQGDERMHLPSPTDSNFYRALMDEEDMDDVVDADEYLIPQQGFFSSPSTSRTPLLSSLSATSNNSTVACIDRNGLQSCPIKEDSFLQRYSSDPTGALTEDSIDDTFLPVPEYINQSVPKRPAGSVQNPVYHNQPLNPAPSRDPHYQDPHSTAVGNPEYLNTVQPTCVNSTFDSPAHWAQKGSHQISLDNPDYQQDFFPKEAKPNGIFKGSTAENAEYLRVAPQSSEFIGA
The assay can be described thus: Kinase inhibition assay (33P transfer), EGFR. To be noted: Table 2, kinase inhibition class; read-out: EGFR-1. A digest of the protocol: as §1

A further assay concerns the target T7, EPHB4 (Homo sapiens, UniProt P54760).
T7 construct: Kinases are expressed as either kinase domains or full length constructs; made in house
T7 sequence (P54760 16-987): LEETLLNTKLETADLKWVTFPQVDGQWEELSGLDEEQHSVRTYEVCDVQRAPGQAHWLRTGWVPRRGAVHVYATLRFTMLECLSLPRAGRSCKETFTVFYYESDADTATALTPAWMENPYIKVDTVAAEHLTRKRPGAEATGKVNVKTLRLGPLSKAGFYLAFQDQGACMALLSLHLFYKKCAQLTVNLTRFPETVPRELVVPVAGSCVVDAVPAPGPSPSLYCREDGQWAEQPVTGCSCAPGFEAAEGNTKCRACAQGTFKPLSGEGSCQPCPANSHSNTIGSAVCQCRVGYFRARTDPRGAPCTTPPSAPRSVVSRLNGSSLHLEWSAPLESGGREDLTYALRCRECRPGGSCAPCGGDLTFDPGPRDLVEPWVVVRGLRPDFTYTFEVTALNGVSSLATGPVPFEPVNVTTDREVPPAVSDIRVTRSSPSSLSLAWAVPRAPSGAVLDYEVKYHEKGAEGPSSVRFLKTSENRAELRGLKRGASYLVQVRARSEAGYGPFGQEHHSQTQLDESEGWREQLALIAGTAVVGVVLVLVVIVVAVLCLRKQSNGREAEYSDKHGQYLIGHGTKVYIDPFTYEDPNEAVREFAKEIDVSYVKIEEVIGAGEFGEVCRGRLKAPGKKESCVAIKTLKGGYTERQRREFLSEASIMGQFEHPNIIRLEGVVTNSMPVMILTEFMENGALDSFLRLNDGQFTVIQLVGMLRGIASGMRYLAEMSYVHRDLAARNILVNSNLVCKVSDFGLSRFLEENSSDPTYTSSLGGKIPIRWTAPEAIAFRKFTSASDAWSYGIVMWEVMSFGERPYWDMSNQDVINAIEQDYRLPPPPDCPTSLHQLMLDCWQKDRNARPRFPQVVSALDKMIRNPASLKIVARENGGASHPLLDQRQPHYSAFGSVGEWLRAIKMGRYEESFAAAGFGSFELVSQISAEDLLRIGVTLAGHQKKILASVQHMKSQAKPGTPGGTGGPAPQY
The experiment in a line: Kinase inhibition assay (33P transfer), EPHB4. To be noted: read-out: EPHB4-1.

For a further assay, the target named is T8, Kdr (Homo sapiens, UniProt P35968).
T8 construct: Kinases are expressed as either kinase domains or full length constructs; made in house
The assay can be described thus: Kinase inhibition assay (33P transfer), Kdr. The conditions noted are these: Table 3; read-out: KDR-1. In outline:
as §2

For a further assay, the target named is T9, Zap-70 (Homo sapiens, UniProt P43403).
T9 construct: Kinases are expressed as either kinase domains or full length constructs; made in house
T9 sequence (P43403 1-619): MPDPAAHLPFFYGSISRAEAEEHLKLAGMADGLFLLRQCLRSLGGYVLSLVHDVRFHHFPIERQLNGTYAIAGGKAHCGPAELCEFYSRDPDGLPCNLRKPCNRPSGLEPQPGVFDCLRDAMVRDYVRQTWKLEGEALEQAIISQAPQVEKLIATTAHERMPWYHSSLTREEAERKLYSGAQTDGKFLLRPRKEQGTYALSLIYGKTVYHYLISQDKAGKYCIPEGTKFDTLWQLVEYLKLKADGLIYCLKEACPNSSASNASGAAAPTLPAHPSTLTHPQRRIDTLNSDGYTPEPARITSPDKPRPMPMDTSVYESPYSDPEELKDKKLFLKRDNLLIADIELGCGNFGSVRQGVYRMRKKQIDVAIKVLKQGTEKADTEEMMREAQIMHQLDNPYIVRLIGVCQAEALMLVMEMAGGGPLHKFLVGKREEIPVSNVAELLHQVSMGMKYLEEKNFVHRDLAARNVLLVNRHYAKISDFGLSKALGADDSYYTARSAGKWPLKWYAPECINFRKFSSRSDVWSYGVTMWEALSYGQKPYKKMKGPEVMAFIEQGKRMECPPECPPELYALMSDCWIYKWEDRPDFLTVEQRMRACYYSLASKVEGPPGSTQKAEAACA
The assay can be described thus: Kinase inhibition assay (33P transfer), Zap-70. To be noted: Table 3; read-out: Zap-1. A digest of the protocol: as §2

The target of another assay is T10, AKT (Homo sapiens, UniProt Q9Y243).
T10 construct: Kinases are expressed as either kinase domains or full length constructs; made in house
The assay can be described thus: Kinase inhibition assay (33P transfer), AKT. The conditions noted are these: Table 2, kinase inhibition class; read-out: AKT3-1. A digest of the protocol: as §2

pIC50: −log10 of the molar value.

T4 sequence (Q02763 23-1124, species assumed): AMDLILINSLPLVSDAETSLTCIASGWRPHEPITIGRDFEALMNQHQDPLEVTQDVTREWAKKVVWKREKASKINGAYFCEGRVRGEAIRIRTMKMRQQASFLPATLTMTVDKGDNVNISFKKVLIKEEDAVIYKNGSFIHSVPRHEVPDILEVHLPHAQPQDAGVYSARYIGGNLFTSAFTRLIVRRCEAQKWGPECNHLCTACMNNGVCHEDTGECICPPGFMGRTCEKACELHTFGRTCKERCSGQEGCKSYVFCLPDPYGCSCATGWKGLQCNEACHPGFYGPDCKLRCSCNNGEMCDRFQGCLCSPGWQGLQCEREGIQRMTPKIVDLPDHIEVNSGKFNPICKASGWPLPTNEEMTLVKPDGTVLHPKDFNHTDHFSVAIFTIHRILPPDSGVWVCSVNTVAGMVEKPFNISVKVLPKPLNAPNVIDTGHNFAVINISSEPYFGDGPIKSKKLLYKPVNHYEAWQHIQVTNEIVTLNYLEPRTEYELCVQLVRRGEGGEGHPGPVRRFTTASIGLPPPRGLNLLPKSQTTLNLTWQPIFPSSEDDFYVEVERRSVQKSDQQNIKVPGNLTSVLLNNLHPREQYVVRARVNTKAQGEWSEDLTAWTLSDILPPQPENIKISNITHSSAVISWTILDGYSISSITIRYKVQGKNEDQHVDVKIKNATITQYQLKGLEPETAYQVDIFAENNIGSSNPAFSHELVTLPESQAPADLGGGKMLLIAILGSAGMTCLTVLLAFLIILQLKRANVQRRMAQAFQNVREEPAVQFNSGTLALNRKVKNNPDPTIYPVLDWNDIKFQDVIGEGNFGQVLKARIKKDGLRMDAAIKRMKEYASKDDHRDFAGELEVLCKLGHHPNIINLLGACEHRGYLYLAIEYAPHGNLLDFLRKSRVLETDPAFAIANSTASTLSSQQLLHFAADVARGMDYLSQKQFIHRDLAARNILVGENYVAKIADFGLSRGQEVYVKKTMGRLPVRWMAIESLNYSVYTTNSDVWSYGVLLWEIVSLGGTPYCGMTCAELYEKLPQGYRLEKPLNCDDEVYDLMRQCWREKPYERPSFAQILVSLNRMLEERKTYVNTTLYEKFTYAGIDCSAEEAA
T3 sequence (P08069 31-1367): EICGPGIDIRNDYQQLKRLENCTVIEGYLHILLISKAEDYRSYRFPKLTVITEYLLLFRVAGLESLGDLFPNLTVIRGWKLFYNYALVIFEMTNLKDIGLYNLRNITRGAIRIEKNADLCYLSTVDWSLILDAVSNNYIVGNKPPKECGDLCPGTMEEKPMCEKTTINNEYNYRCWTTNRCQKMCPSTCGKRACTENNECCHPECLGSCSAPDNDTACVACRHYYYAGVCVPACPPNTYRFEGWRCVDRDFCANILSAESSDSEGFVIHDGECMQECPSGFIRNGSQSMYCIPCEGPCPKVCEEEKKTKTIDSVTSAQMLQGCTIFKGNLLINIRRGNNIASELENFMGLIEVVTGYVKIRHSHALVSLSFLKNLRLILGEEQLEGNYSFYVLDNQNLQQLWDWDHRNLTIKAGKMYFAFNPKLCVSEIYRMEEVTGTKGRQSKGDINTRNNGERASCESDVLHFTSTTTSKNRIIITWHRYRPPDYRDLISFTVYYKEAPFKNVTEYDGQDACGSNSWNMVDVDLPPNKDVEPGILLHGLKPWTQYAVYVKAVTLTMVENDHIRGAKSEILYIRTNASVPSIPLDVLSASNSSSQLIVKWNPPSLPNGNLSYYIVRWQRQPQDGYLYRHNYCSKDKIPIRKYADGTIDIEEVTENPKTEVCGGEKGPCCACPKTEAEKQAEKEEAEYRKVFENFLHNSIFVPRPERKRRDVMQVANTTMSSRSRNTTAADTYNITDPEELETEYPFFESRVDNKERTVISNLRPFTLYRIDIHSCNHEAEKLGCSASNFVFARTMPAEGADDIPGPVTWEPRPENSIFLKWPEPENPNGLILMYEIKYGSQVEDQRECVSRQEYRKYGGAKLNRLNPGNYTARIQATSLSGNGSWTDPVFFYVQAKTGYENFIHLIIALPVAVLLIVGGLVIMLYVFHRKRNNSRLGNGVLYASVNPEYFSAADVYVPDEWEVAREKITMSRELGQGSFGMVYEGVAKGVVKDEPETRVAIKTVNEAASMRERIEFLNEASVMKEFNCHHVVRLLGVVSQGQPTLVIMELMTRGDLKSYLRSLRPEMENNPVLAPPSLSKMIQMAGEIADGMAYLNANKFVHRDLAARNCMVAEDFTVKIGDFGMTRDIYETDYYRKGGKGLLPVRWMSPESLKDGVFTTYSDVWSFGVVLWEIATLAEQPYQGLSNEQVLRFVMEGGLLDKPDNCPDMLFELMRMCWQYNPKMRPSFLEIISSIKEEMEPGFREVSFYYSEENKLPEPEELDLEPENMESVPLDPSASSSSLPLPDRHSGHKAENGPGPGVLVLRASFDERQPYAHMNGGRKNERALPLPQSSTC

Turning to `COc1ccc(Oc2ncnc(Nc3cc(OC)c(OC)c(OC)c3)n2)cc1` [Compound 174], the pIC50 at Itk was less than 4.93; at Lck it was less than 4.93; against IGFR-1, less than 4.93; at Tek, less than 4.93; at c-Met, less than 4.93; at EGFR it was 5.04 to 5.20. The pIC50 was less than 4.93 at EPHB4, more than 5.98 on Kdr, less than 4.93 at Zap-70 and less than 4.93 on AKT.

For `COc1cc(Nc2ncnc(N3CCC(O)CC3)n2)cc(OC)c1OC` [Compound 208], the pIC50 was less than 4.90 at Itk; less than 4.90 on Lck; less than 4.90 against IGFR-1; less than 4.90 at Tek; 4.90 to 5.01 on c-Met; less than 4.90 on EGFR. For the same compound, the pIC50 on EPHB4 is less than 4.90; on Kdr it was 5.18 to 5.96; on Zap-70, less than 4.90; at AKT, less than 4.90.

Regarding `COc1cc(Nc2ncnc(N3CCN(C)CC3)n2)cc(OC)c1OC` [Compound 212], the pIC50 at Itk, on Lck, against IGFR-1, on Tek, on c-Met and at EGFR was less than 4.90 each time. The pIC50 at EPHB4, on Kdr, at Zap-70 and on AKT was less than 4.90 each time.

With `COc1cc(Nc2ncnc(-c3cc4ccccc4s3)n2)cc(OC)c1OC` [Compound 218], the pIC50 on Itk, on Lck, at IGFR-1, at Tek, on c-Met and on EGFR was less than 4.94 throughout. In addition, the pIC50 on EPHB4, on Kdr, at Zap-70 and at AKT was less than 4.94 in each case.

Take `COc1cc(Nc2ncnc(-c3cccc(Cl)c3)n2)cc(OC)c1OC` [Compound 220]: the pIC50 on Itk, on Lck, against IGFR-1, on Tek, on c-Met and on EGFR was less than 4.92 in each case. In addition, the pIC50 at EPHB4, on Kdr, at Zap-70 and on AKT was less than 4.92 in each case.

As to `COc1cc(Nc2ncnc(-c3ccc(F)cc3)n2)cc(OC)c1OC` [Compound 222], the pIC50 at Itk, on Lck, on IGFR-1, on Tek, on c-Met and at EGFR was less than 4.90 throughout. For the same compound, the pIC50 is less than 4.90 at EPHB4, 4.90 to 5.01 on Kdr, less than 4.90 on Zap-70 and less than 4.90 at AKT.

Take `COc1cc(Nc2ncnc(-c3ccsc3)n2)cc(OC)c1OC` [Compound 226]: the pIC50 at Itk is less than 4.88; at Lck, 4.88 to 4.99; at IGFR-1, less than 4.88; on Tek, 4.88 to 4.99; at c-Met, less than 4.88; on EGFR, less than 4.88. For the same compound, the pIC50 at EPHB4 is less than 4.88; at Kdr, 4.99 to 5.16; at Zap-70, 4.88 to 4.99; at AKT, less than 4.88.

Take `COc1cc(Nc2ncnc(Nc3ccc(S(=O)(=O)NC(C)=O)cc3)n2)cc(OC)c1OC` [Compound 255]: the pIC50 at Itk, at Lck, at IGFR-1, on Tek, on c-Met and on EGFR was less than 5.02 each time. Moreover, the pIC50 on EPHB4 is less than 5.02; at Kdr, more than 6.07; at Zap-70, less than 5.02; at AKT, less than 5.02.

For the origin of these results see patent US7074789B2, “Kinase inhibitors” (Amgen Inc., priority 1999, dated 2006).
